Experimental data as given in paper PMC9907956 (Journal of inorganic biochemistry, 2022).

Assays:
CYP11B2 [1] = test: CYP11B2 substrate binding with varying adrenodoxin; parameters: species or system human; conditions: over 40-fold range of excess adrenodoxin
CYP11B2 [2] = conditions: increasing adrenodoxin up to 40-fold; ref [8]; cited from earlier work
human CYP11B1 [3] = target: T1, human CYP11B1 (Homo sapiens, UniProt P15538); test: Spectral ligand binding titration; conditions: for Kd: dissociation constant Kd, 1 μM CYP11B1; for Amax: 0.2 μM CYP11B1, 5 cm cuvettes
T1 sequence (P15538 25-503): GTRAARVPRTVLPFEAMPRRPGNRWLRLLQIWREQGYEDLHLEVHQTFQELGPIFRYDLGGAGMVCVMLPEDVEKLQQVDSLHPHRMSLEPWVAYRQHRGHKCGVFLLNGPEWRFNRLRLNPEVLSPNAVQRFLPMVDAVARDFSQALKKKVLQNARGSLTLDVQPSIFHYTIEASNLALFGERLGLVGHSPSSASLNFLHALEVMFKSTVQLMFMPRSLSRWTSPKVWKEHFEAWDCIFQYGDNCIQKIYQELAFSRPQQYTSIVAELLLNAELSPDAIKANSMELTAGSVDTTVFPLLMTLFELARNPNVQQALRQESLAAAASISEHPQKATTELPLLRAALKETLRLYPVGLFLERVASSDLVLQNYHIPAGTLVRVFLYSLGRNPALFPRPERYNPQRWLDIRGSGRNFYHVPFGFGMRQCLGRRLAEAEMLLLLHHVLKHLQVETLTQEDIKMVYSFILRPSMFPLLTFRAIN

[4] = target: T2, adrenodoxin-CYP11B1 fusion enzyme (Homo sapiens, UniProt P10109+P15538); test: Spectral ligand binding titration of the adrenodoxin-CYP11B1 fusion enzyme
T2 sequence (P10109+P15538 with tags, fused parts or gaps): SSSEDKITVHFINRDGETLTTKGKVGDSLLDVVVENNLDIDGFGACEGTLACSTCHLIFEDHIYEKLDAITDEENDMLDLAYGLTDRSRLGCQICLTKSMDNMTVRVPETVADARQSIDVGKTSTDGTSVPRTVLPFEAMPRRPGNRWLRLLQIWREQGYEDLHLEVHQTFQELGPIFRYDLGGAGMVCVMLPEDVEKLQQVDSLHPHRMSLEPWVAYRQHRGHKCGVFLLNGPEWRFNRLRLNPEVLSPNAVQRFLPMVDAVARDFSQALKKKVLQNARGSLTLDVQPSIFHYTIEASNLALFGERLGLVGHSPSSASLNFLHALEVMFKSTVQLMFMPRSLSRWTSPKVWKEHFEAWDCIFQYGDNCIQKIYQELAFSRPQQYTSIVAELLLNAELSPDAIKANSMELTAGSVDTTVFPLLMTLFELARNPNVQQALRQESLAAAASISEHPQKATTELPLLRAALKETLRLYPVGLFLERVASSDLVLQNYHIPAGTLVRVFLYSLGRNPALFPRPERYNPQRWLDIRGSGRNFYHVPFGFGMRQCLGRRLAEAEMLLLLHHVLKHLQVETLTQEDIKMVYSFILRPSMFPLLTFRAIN

human CYP11B1 [5] = target: T1, human CYP11B1; assay type: biochemical; conditions: 1:1 condition to 1:40 excess adrenodoxin

In the case of `C[C@]12CC[C@H]3[C@@H](CCC4=CC(=O)CC[C@@]43C)[C@@H]1CC[C@@H]2C(=O)CO` [11-deoxycorticosterone], the “fold increase of Amax/Kd for CYP11B2” value (CYP11B2 [1]) is given as “more than 3 fold” and the “fold effect on Km for CYP11B2” value (CYP11B2 [2]) is given as 1.6 fold.

In the case of `C[C@]12CCC(=O)C=C1CC[C@@H]1[C@@H]2CC[C@@]2(C)[C@H]1CC[C@]2(O)C(=O)CO` [11-deoxycortisol], the Kd (human CYP11B1 [3]; 10-fold excess adrenodoxin) is reported as 12.2 µM, the Kd (human CYP11B1 [3]; 40-fold excess adrenodoxin) is reported as 7.3 µM and the Kd (human CYP11B1 [3]; equimolar adrenodoxin (1 μM)) is reported as 20.8 µM. For the same molecule, the Kd (human CYP11B1 [3]; no adrenodoxin) was 17 µM, the “fold increase of Amax/Kd (binding efficiency)” value ([4]; adrenodoxin fused) was “more than 11 fold” and the “fold difference of Kd, fusion vs same 1:1 ratio of non-fused proteins” value ([4]; printed as higher) was ~ 5 fold. The “fold increase in catalytic efficiency (kcat/Km)” value (human CYP11B1 [5]) was “greater than 11 fold”.

Molecule `N#Cc1ccc([C@H]2CCc3cncn32)c(F)c1` [LCI699, osilodrostat] has an Amax (human CYP11B1 [3]; 1:1 CYP11B1 to adrenodoxin) of 0.015 and an Amax (human CYP11B1 [3]; CYP11B1 alone) of 0.006.
